# Assays:
# Assay type in all cases: in vivo
# [1] = tested on: GLXMA, Soybean, Glycine max, (L.) Merr.; experiment: Preemergence herbicidal evaluation (Example 148); conditions: rating scale 0-9, two to four weeks after treatment
# Summary of the method: (§1)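 Seeds mixed with potting soil and planted in cups, then sprayed preemergence with aqueous acetone solution of test compound at about 0.125 to 0.250 kg per hectare. Kept under greenhouse conditions; visual rating versus untreated control 2–4 weeks after treatment, scoring stand, vigor, malformation, size and chlorosis. Repeat tests averaged.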
# [2] = tested on: ZEAMX, Field corn, Zea mays L.; experiment: Preemergence herbicidal evaluation (Example 148); conditions: rating scale 0-9, two to four weeks after treatment
# Summary of the method: as §1
# [3] = tested on: ALOMY, Blackgrass, Alopecurus myosuroides; experiment: Preemergence herbicidal evaluation (Example 148); conditions: rating scale 0-9, two to four weeks after treatment
# Summary of the method: as §1
# [4] = tested on: AMBEL, Ragweed, Common, Ambrosia artemiisifolia, L.; experiment: Preemergence herbicidal evaluation (Example 148); conditions: rating scale 0-9, two to four weeks after treatment
# Summary of the method: as §1
# [5] = tested on: ABUTH, Velvetleaf, Abutilon theophrasti, Medic.; experiment: Preemergence herbicidal evaluation (Example 148); conditions: rating scale 0-9, two to four weeks after treatment
# Summary of the method: as §1
# [6] = tested on: ECHCG, Barnyardgrass, Echinochloa crusgalli, (L.)Beau; experiment: Preemergence herbicidal evaluation (Example 148); conditions: rating scale 0-9, two to four weeks after treatment
# Summary of the method: as §1
# [7] = tested on: CHEAL, Lambsquarters, Chenopodium album, L. Common; experiment: Preemergence herbicidal evaluation (Example 148); conditions: rating scale 0-9, two to four weeks after treatment
# Summary of the method: as §1
# [8] = tested on: TRZAW, Winter wheat, Tritium Aestivum, L. (Winter); experiment: Preemergence herbicidal evaluation (Example 148); conditions: rating scale 0-9, two to four weeks after treatment
# Summary of the method: as §1
# [9] = tested on: XANST, Cocklebur, Xanthium strumariam; experiment: Preemergence herbicidal evaluation (Example 148); conditions: rating scale 0-9, two to four weeks after treatment
# Summary of the method: as §1
# [10] = tested on: IPOHE, Morningglory, Ivyleaf, Ipomoea hederacea, (L)Jacq.; experiment: Preemergence herbicidal evaluation (Example 148); conditions: rating scale 0-9, two to four weeks after treatment
# Summary of the method: as §1
# [11] = tested on: SETVI, Green foxtail, Setaria viridis, (L.)Beau; experiment: Preemergence herbicidal evaluation (Example 148); conditions: rating scale 0-9, two to four weeks after treatment
# Summary of the method: as §1
# [12] = tested on: DIGSA, Crabgrass, (Hairy) L, Digitaria sanguinalis, (L)Scop; experiment: Preemergence herbicidal evaluation (Example 148); conditions: rating scale 0-9, two to four weeks after treatment
# Summary of the method: as §1
# [13] = tested on: GLXMA, Soybean, Glycine max, (L.) Merr.; experiment: Postemergence herbicidal evaluation (Example 147); conditions: rating scale 0-9, two to three weeks after treatment
# Summary of the method: (§2)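 First, seedlings were raised for about two weeks. Next, they were sprayed at 40 psi with compound (about 0.016 to 0.032 kg/ha) in acetone/water 80/20 containing 1.0% methylated seed oil. Finally, after two to three greenhouse weeks, overall appearance versus control was rated 0-9, averaging repeat tests.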
# [14] = tested on: ZEAMX, Field corn, Zea mays L.; experiment: Postemergence herbicidal evaluation (Example 147); conditions: rating scale 0-9, two to three weeks after treatment
# Summary of the method: as §2
# [15] = tested on: ALOMY, Blackgrass, Alopecurus myosuroides; experiment: Postemergence herbicidal evaluation (Example 147); conditions: rating scale 0-9, two to three weeks after treatment
# Summary of the method: as §2
# [16] = tested on: AMBEL, Ragweed, Common, Ambrosia artemiisifolia, L.; experiment: Postemergence herbicidal evaluation (Example 147); conditions: rating scale 0-9, two to three weeks after treatment
# Summary of the method: as §2
# [17] = tested on: ABUTH, Velvetleaf, Abutilon theophrasti, Medic.; experiment: Postemergence herbicidal evaluation (Example 147); conditions: rating scale 0-9, two to three weeks after treatment
# Summary of the method: as §2
# [18] = tested on: ECHCG, Barnyardgrass, Echinochloa crusgalli, (L.)Beau; experiment: Postemergence herbicidal evaluation (Example 147); conditions: rating scale 0-9, two to three weeks after treatment
# Summary of the method: as §2
# [19] = tested on: CHEAL, Lambsquarters, Chenopodium album, L. Common; experiment: Postemergence herbicidal evaluation (Example 147); conditions: rating scale 0-9, two to three weeks after treatment
# Summary of the method: as §2
# [20] = tested on: TRZAW, Winter wheat, Tritium Aestivum, L. (Winter); experiment: Postemergence herbicidal evaluation (Example 147); conditions: rating scale 0-9, two to three weeks after treatment
# Summary of the method: as §2
# [21] = tested on: XANST, Cocklebur, Xanthium strumariam; experiment: Postemergence herbicidal evaluation (Example 147); conditions: rating scale 0-9, two to three weeks after treatment
# Summary of the method: as §2
# [22] = tested on: IPOHE, Morningglory, Ivyleaf, Ipomoea hederacea, (L)Jacq.; experiment: Postemergence herbicidal evaluation (Example 147); conditions: rating scale 0-9, two to three weeks after treatment
# Summary of the method: as §2
# [23] = tested on: SETVI, Green foxtail, Setaria viridis, (L.)Beau; experiment: Postemergence herbicidal evaluation (Example 147); conditions: rating scale 0-9, two to three weeks after treatment
# Summary of the method: as §2
# [24] = tested on: DIGSA, Crabgrass, (Hairy) L, Digitaria sanguinalis, (L)Scop; experiment: Postemergence herbicidal evaluation (Example 147); conditions: rating scale 0-9, two to three weeks after treatment
# Summary of the method: as §2
structure (smiles),measurement,setting,value
COc1ccc(CNS(=O)(=O)NC(=O)c2cc(-n3c(=O)cc(C(F)(F)F)n(C)c3=O)c(F)cc2Cl)cc1 [Example 82],Preemergence herbicidal rating GLXMA,[1]; rate 0.125 kg/ha,9.0
same,Preemergence herbicidal rating GLXMA,[1]; rate 0.25 kg/ha,9.0
same,Preemergence herbicidal rating ZEAMX,[2]; rate 0.125 kg/ha,0.0
same,Preemergence herbicidal rating ZEAMX,[2]; rate 0.25 kg/ha,2.0
same,Preemergence herbicidal rating ALMOY,[3]; rate 0.125 kg/ha,0.0
same,Preemergence herbicidal rating ALMOY,[3]; rate 0.25 kg/ha,0.0
same,Preemergence herbicidal rating AMBEL,[4]; rate 0.125 kg/ha,9.0
same,Preemergence herbicidal rating AMBEL,[4]; rate 0.25 kg/ha,9.0
same,Preemergence herbicidal rating ABUTH,[5]; rate 0.125 kg/ha,9.0
same,Preemergence herbicidal rating ABUTH,[5]; rate 0.25 kg/ha,9.0
same,Preemergence herbicidal rating ECHCG,[6]; rate 0.125 kg/ha,3.0
same,Preemergence herbicidal rating ECHCG,[6]; rate 0.25 kg/ha,4.0
same,Preemergence herbicidal rating CHEAL,[7]; rate 0.125 kg/ha,9.0
same,Preemergence herbicidal rating CHEAL,[7]; rate 0.25 kg/ha,9.0
same,Preemergence herbicidal rating TRZAW,[8]; rate 0.125 kg/ha,0.0
same,Preemergence herbicidal rating TRZAW,[8]; rate 0.25 kg/ha,1.0
same,Preemergence herbicidal rating XANST,[9]; rate 0.125 kg/ha,9.0
same,Preemergence herbicidal rating XANST,[9]; rate 0.25 kg/ha,9.0
same,Preemergence herbicidal rating IPOHE,[10]; rate 0.125 kg/ha,9.0
same,Preemergence herbicidal rating IPOHE,[10]; rate 0.25 kg/ha,9.0
same,Preemergence herbicidal rating SETVI,[11]; rate 0.125 kg/ha,3.0
same,Preemergence herbicidal rating SETVI,[11]; rate 0.25 kg/ha,7.0
same,Preemergence herbicidal rating DIGSA,[12]; rate 0.125 kg/ha,4.0
same,Preemergence herbicidal rating DIGSA,[12]; rate 0.25 kg/ha,4.0
same,Postemergence herbicidal rating GLXMA,[13]; rate 0.016 kg/ha,8.0
same,Postemergence herbicidal rating GLXMA,[13]; rate 0.032 kg/ha,8.5
same,Postemergence herbicidal rating ZEAMX,[14]; rate 0.016 kg/ha,6.5
same,Postemergence herbicidal rating ZEAMX,[14]; rate 0.032 kg/ha,6.5
same,Postemergence herbicidal rating ALMOY,[15]; rate 0.016 kg/ha,1.0
same,Postemergence herbicidal rating ALMOY,[15]; rate 0.032 kg/ha,2.0
same,Postemergence herbicidal rating AMBEL,[16]; rate 0.016 kg/ha,9.0
same,Postemergence herbicidal rating AMBEL,[16]; rate 0.032 kg/ha,9.0
same,Postemergence herbicidal rating ABUTH,[17]; rate 0.016 kg/ha,9.0
same,Postemergence herbicidal rating ABUTH,[17]; rate 0.032 kg/ha,9.0
same,Postemergence herbicidal rating ECHCG,[18]; rate 0.016 kg/ha,7.0
same,Postemergence herbicidal rating ECHCG,[18]; rate 0.032 kg/ha,8.0
same,Postemergence herbicidal rating CHEAL,[19]; rate 0.016 kg/ha,9.0
same,Postemergence herbicidal rating CHEAL,[19]; rate 0.032 kg/ha,9.0
same,Postemergence herbicidal rating TRZAW,[20]; rate 0.016 kg/ha,5.5
same,Postemergence herbicidal rating TRZAW,[20]; rate 0.032 kg/ha,6.0
same,Postemergence herbicidal rating XANST,[21]; rate 0.016 kg/ha,9.0
same,Postemergence herbicidal rating XANST,[21]; rate 0.032 kg/ha,9.0
same,Postemergence herbicidal rating IPOHE,[22]; rate 0.016 kg/ha,9.0
same,Postemergence herbicidal rating IPOHE,[22]; rate 0.032 kg/ha,9.0
same,Postemergence herbicidal rating SETVI,[23]; rate 0.016 kg/ha,6.0
same,Postemergence herbicidal rating SETVI,[23]; rate 0.032 kg/ha,7.0
same,Postemergence herbicidal rating DIGSA,[24]; rate 0.016 kg/ha,3.0
same,Postemergence herbicidal rating DIGSA,[24]; rate 0.032 kg/ha,3.0
CCCCN(C)S(=O)(=O)NC(=O)c1cc(-n2c(=O)cc(C(F)(F)F)n(C)c2=O)c(F)cc1Cl [Example 83],Preemergence herbicidal rating GLXMA,[1]; rate 0.125 kg/ha,1.0
same,Preemergence herbicidal rating GLXMA,[1]; rate 0.25 kg/ha,4.0
same,Preemergence herbicidal rating ZEAMX,[2]; rate 0.125 kg/ha,0.0
same,Preemergence herbicidal rating ZEAMX,[2]; rate 0.25 kg/ha,2.0
same,Preemergence herbicidal rating ALMOY,[3]; rate 0.125 kg/ha,0.0
same,Preemergence herbicidal rating ALMOY,[3]; rate 0.25 kg/ha,0.0
same,Preemergence herbicidal rating AMBEL,[4]; rate 0.125 kg/ha,8.0
same,Preemergence herbicidal rating AMBEL,[4]; rate 0.25 kg/ha,8.0
same,Preemergence herbicidal rating ABUTH,[5]; rate 0.125 kg/ha,8.0
same,Preemergence herbicidal rating ABUTH,[5]; rate 0.25 kg/ha,9.0
same,Preemergence herbicidal rating ECHCG,[6]; rate 0.125 kg/ha,4.0
same,Preemergence herbicidal rating ECHCG,[6]; rate 0.25 kg/ha,5.0
same,Preemergence herbicidal rating CHEAL,[7]; rate 0.125 kg/ha,9.0
same,Preemergence herbicidal rating CHEAL,[7]; rate 0.25 kg/ha,9.0
same,Preemergence herbicidal rating TRZAW,[8]; rate 0.125 kg/ha,0.0
same,Preemergence herbicidal rating TRZAW,[8]; rate 0.25 kg/ha,0.0
same,Preemergence herbicidal rating XANST,[9]; rate 0.125 kg/ha,4.0
same,Preemergence herbicidal rating XANST,[9]; rate 0.25 kg/ha,5.0
same,Preemergence herbicidal rating IPOHE,[10]; rate 0.125 kg/ha,7.0
same,Preemergence herbicidal rating IPOHE,[10]; rate 0.25 kg/ha,8.0
same,Preemergence herbicidal rating SETVI,[11]; rate 0.125 kg/ha,3.0
same,Preemergence herbicidal rating SETVI,[11]; rate 0.25 kg/ha,6.0
same,Preemergence herbicidal rating DIGSA,[12]; rate 0.125 kg/ha,1.0
same,Preemergence herbicidal rating DIGSA,[12]; rate 0.25 kg/ha,9.0
same,Postemergence herbicidal rating GLXMA,[13]; rate 0.016 kg/ha,7.0
same,Postemergence herbicidal rating GLXMA,[13]; rate 0.032 kg/ha,7.5
same,Postemergence herbicidal rating ZEAMX,[14]; rate 0.016 kg/ha,5.5
same,Postemergence herbicidal rating ZEAMX,[14]; rate 0.032 kg/ha,6.0
same,Postemergence herbicidal rating ALMOY,[15]; rate 0.016 kg/ha,0.0
same,Postemergence herbicidal rating ALMOY,[15]; rate 0.032 kg/ha,1.0
same,Postemergence herbicidal rating AMBEL,[16]; rate 0.016 kg/ha,6.0
same,Postemergence herbicidal rating AMBEL,[16]; rate 0.032 kg/ha,8.0
same,Postemergence herbicidal rating ABUTH,[17]; rate 0.016 kg/ha,9.0
same,Postemergence herbicidal rating ABUTH,[17]; rate 0.032 kg/ha,9.0
same,Postemergence herbicidal rating ECHCG,[18]; rate 0.016 kg/ha,8.0
same,Postemergence herbicidal rating ECHCG,[18]; rate 0.032 kg/ha,8.0
same,Postemergence herbicidal rating CHEAL,[19]; rate 0.016 kg/ha,5.0
same,Postemergence herbicidal rating CHEAL,[19]; rate 0.032 kg/ha,5.0
same,Postemergence herbicidal rating TRZAW,[20]; rate 0.016 kg/ha,4.5
same,Postemergence herbicidal rating TRZAW,[20]; rate 0.032 kg/ha,5.5
same,Postemergence herbicidal rating XANST,[21]; rate 0.016 kg/ha,9.0
same,Postemergence herbicidal rating XANST,[21]; rate 0.032 kg/ha,9.0
same,Postemergence herbicidal rating IPOHE,[22]; rate 0.016 kg/ha,8.0
same,Postemergence herbicidal rating IPOHE,[22]; rate 0.032 kg/ha,9.0
same,Postemergence herbicidal rating SETVI,[23]; rate 0.016 kg/ha,7.0
same,Postemergence herbicidal rating SETVI,[23]; rate 0.032 kg/ha,8.0
same,Postemergence herbicidal rating DIGSA,[24]; rate 0.016 kg/ha,3.0
same,Postemergence herbicidal rating DIGSA,[24]; rate 0.032 kg/ha,4.0
